Experimental data from US20240024350A1, “ANTI-CANCER COMPOSITION CONTAINING AURANOFIN AND MERCAPTO COMPOUND AND USE THEREOF” (SUN YAT-SEN UNIVERSITY, priority 2020, published 2024).

Assays:
[1] = tested on: PC9 human lung cancer cells; experiment: MTT cell survival assay, PC9; type: cell-based; settings: TGTA 50 μM
Protocol: (§1) A flask with the cancer cells required for the experiment, with an original culture solution discarded, was washed for three times with 2 mL of PBS, 1 mL of pancreatin was added for digestion for 30 s, and 2 mL of a medium was added to terminate the digestion. The cells were transferred to a centrifuge tube and centrifuged at 1000 rpm for 3 min, the supernatant was discarded, and 2 mL of a medium was added and blew 10 times to be mixed uniformly. 10 μL of a cell suspension was taken for cell counting, and spread on a 96-well plate, with 5000 cells per well and 3 duplications for each compound, and then the number of cells and cell wells was calculated. The amount of required cell suspension and the number of cells for medium dilution were calculated by cell counting. 100 μL of medium was plated with 5000 cells per well, pipetted and mixed uniformly, and the cells were inoculated using a volley, placed in an incubator for culture, and marked. […]
(§2) According to the results of Table 1-2, the killing effect of auranofin in combination with various compounds (with 30% FBS) on HCT116 human colon cancer cells and the killing effect of the auranofin-TGTA (50 μM) in combination with other cancer cells (lung cancer, colon cancer, breast cancer, liver cancer, cervical cancer and gastric cancer cells) were further detected by using the same method as the above.

solid tumor models = settings: several solid tumor models; intraperitoneal injection; follow-up studies; cited from earlier work
HepG2 cells = experiment: Cell uptake of auranofin (gold by ICP-MS) in HepG2 cells; type: cell-based, human
Protocol: HepG2 cells were used as a test subject.
The cells were inoculated into a 6-well plate at 2×10^5 cell/well and incubated for 24 h.
After the incubation, the cell culture medium was replaced with 30% of FBS to stimulate a high-concentration mercapto environment under the normal physiological condition, and used as a control (without adding any reagents). The experimental group was added with 3 μM of auranofin for incubation at 37° C. for 10 min and then added with the mercapto compound (DEDT, β-mercaptoethanol or mercaptoethylamine) for incubation for 1 h (final concentration of DMSO in the system was 1%). After incubation, the cells were immediately washed for 3 times with PBS, 500 μL of ultrapure water was added to each well to break the cells, and after 15 min, the cell lysate was collected.
The collected cell lysate was dissolved by adding aqua regia and diluted with ultrapure water to a proper proportion. Inductively coupled plasma mass spectrometry (ICP-MS) was used for gold detection. The cell uptake rate of 3 μM […] without FBS was used as the control.
Wherein, the above uptake is the amount of gold (mg) in 1 g protein in the cell.

[2] = tested on: MGC803 human gastric cancer cells; experiment: MTT cell survival assay, MGC803; type: cell-based; settings: TGTA 50 μM
Protocol: as §1, §2

[3] = tested on: Hela human cervical cancer cells; experiment: MTT cell survival assay, Hela; type: cell-based; settings: TGTA 50 μM
Protocol: as §1, §2

## CC(=O)OC[C@H]1O[C@@H]([S-])[C@H](OC(C)=O)[C@@H](OC(C)=O)[C@@H]1OC(C)=O.CCP(CC)CC.[Au+] [Auranofin]
[1]
  Cell survival rate (%) PC9: 93 ± 3%
Solid tumor models
  life span of mice and growth of tumors: could neither prolong the life span of mice nor inhibit the growth of tumors
HepG2 cells
  uptake of gold: 728 mg/g protein
[2]
  Cell survival rate (%) MGC803: 79 ± 3%
[3]
  Cell survival rate (%) Hela: 46 ± 7%
